One data set has as its target T1, A II receptor (Bos taurus, UniProt P25104).
T1 construct: An A II receptor membrane fraction was prepared from bovine adrenal cortex; from tissue; host or cells: bovine adrenal cortex membrane fraction
T1 sequence (P25104 1-359): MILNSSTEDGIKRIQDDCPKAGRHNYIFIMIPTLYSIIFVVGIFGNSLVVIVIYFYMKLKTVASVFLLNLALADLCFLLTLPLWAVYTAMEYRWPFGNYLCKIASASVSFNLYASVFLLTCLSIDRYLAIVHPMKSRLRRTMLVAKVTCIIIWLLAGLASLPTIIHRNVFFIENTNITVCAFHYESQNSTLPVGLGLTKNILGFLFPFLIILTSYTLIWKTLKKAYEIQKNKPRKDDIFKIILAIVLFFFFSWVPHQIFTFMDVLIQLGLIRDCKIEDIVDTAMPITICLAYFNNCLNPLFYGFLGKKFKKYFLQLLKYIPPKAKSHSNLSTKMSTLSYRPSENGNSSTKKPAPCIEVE
Put plainly: Inhibition of binding of angiotensin II to angiotensin receptor (radioreceptor assay). On the set-up: species or system bovine; Radioreceptor Assay 1 × 10^−7M / Radioreceptor Assay 1 × 10^−6M: unit not given here. Conditions: for inhibition at 1 µM / inhibition at 0.1 µM: 1 h; for inhibition at 1 µM / Radioreceptor Assay 1 × 10^−6M / Radioreceptor Assay 1 × 10^−7M: inhibition of 125I-A II binding, bovine adrenal cortex membrane fraction; for inhibition at 1 µM / Radioreceptor Assay 1 × 10^−6M: compound 1 × 10^−6M; for inhibition at 0.1 µM: read-out: Radioreceptor Assay 1 × 10^−7M; for Radioreceptor Assay 1 × 10^−7M: compound 1 × 10^−7M. On the procedure: An experiment of inhibition on the binding of angiotensin II (A II) to A II receptor was conducted by modifying the method of Douglas et al. [Endocrinology, 102, 685-696 (1978)]. An A II receptor membrane fraction was prepared from bovine adrenal cortex.
The compound of the present invention (10 ^−6M or 10^−7M) and ^125I-angiotensin II (^125I-A II) (1.85 kBq/50 μl ) were added to the receptor membrane fraction, and the mixture was incubated at room temperature for one hour. The receptor-bound and free ^125I-A II were separated through a filter (Whatman GF/B filter), and the radioactivity of ^125I-A II bound to the receptor was measured.

The subject of data set [1] is A II-induced pressor action. Put plainly: Inhibitory effect on pressor action of A II after oral administration. It counts as in vivo, Jcl: SD rats. As to conditions: for inhibition in vivo at 3 mg/kg: Rattus norvegicus, po, read-out: Pressor Response to A II (p.o.) 3 mg/kg; for Pressor Response to A II (p.o.) 3 mg/kg: percent inhibition of pressor action of i.v. A II (100 ng/kg), 3 mg/kg p.o., rats. On the procedure: Jcl: SD rats (9 week old, male) were employed. On the previous day of the experiment, these animals were applied with cannulation into the femoral artery and vein under anesthesia with pentobarbital Na. The animals were fasted but allowed to access freely to drinking water until the experiment was started. Just on the day of conducting the experiment, the artery cannula was connected with a blood-pressure transducer, and the average blood pressure was recorded by means of polygraph. Before administration of the drug, the pressor action due to intravenous administration of A II (100 ng/kg) as the control was measured. The drugs were orally administered, then, at each point of the measurement, A II was administered intravenously, and the pressor action was similarly measured. By comparing the pressor action before and after administration of the drug, the percent inhibition by the drug on A II-induced pressor action was evaluated.

Turning to `CCOC(=O)c1cccc2nc(OCC)n(Cc3ccc(-c4ccccc4-c4nnn[nH]4)cc3)c12` [Example 28], on A II receptor, the inhibition at 1 µM worked out at 82% and the inhibition at 0.1 µM was 46%. The inhibition in vivo at 3 mg/kg in data set [1] is not below 70%.

As to `CCOc1nc2cccc(C(=O)O)c2n1Cc1ccc(-c2ccccc2-c2nnn[nH]2)cc1` [Example 29], at A II receptor, the inhibition at 1 µM was determined as 91% and the inhibition at 0.1 µM came out at 61%. In addition, the inhibition in vivo at 3 mg/kg in data set [1] was not below 70%.

On to `CCCOc1nc2cccc(C(=O)OCC)c2n1Cc1ccc(-c2ccccc2-c2nnn[nH]2)cc1` [Example 30], for which, at A II receptor, the inhibition at 1 µM was 48% and the inhibition at 0.1 µM was determined as 16%. For the same molecule, the inhibition in vivo at 3 mg/kg in data set [1] is not below 70%.

Take `CCCOc1nc2cccc(C(=O)O)c2n1Cc1ccc(-c2ccccc2-c2nnn[nH]2)cc1` [Example 31]: at A II receptor, the inhibition at 1 µM was 79% and the inhibition at 0.1 µM was determined as 40%. Also, in data set [1], the inhibition in vivo at 3 mg/kg is not below 70%.

With `CCOC(=O)c1cccc2nc(SC)n(Cc3ccc(-c4ccccc4-c4nnn[nH]4)cc3)c12` [Example 33], at A II receptor, the inhibition at 1 µM was 26% and the inhibition at 0.1 µM came to 2%. Also, the inhibition in vivo at 3 mg/kg in data set [1] is 30 to 50%.

Regarding `CCOC(=O)c1cccc2nc(SCC)n(Cc3ccc(-c4ccccc4-c4nnn[nH]4)cc3)c12` [Example 34], at A II receptor, the inhibition at 1 µM turned out to be 54% and the inhibition at 0.1 µM turned out to be 17%. Moreover, the inhibition in vivo at 3 mg/kg in data set [1] was not below 70%.

`CCCSc1nc2cccc(C(=O)OCC)c2n1Cc1ccc(-c2ccccc2-c2nnn[nH]2)cc1` [Example 35]: at A II receptor, the inhibition at 1 µM is 32% and the inhibition at 0.1 µM came out at 7%.

On to `CSc1nc2cccc(C(=O)O)c2n1Cc1ccc(-c2ccccc2-c2nnn[nH]2)cc1` [Example 36], for which, at A II receptor, the inhibition at 1 µM was found to be 82% and the inhibition at 0.1 µM was 51%. In addition, the inhibition in vivo at 3 mg/kg in data set [1] is not below 70%.

Consider `CCSc1nc2cccc(C(=O)O)c2n1Cc1ccc(-c2ccccc2-c2nnn[nH]2)cc1` [Example 37], for which, on A II receptor, the inhibition at 1 µM worked out at 80% and the inhibition at 0.1 µM came to 41%. Moreover, the inhibition in vivo at 3 mg/kg in data set [1] was not below 70%.

Regarding `CCCSc1nc2cccc(C(=O)O)c2n1Cc1ccc(-c2ccccc2-c2nnn[nH]2)cc1` [Example 38], at A II receptor, the inhibition at 1 µM stood at 50% and the inhibition at 0.1 µM worked out at 6%. In data set [1], the inhibition in vivo at 3 mg/kg is not below 70%.

`CCOc1nc2cccc(C(=O)OC)c2n1Cc1ccc(-c2ccccc2-c2nnn[nH]2)cc1` [Example 39]: at A II receptor, the inhibition at 1 µM was found to be 89% and the inhibition at 0.1 µM was determined as 58%. Further, the inhibition in vivo at 3 mg/kg in data set [1] is not below 70%.

Turning to `CCCNc1nc2cccc(C(=O)OCC)c2n1Cc1ccc(-c2ccccc2-c2nnn[nH]2)cc1` [Example 41], on A II receptor, the inhibition at 1 µM is 57% and the inhibition at 0.1 µM amounted to 45%.

In the case of `CCOc1nc2cccc(C(=O)OCOC(=O)C(C)(C)C)c2n1Cc1ccc(-c2ccccc2-c2nnn[nH]2)cc1` [Example 43], at A II receptor, the “Radioreceptor Assay 1 × 10^−6M” value stood at 94 and the “Radioreceptor Assay 1 × 10^−7M” value is 74. For the same molecule, in data set [1], the “Pressor Response to A II (p.o.) 3 mg/kg” value is “+++ (+++ ≧ 70%)”.

Regarding `CCOc1nc2cccc(C(=O)OC(C)OC(=O)OC3CCCCC3)c2n1Cc1ccc(-c2ccccc2-c2nnn[nH]2)cc1` (stereo not shown) [Example 44], on A II receptor, the “Radioreceptor Assay 1 × 10^−6M” value came out at 77 and the “Radioreceptor Assay 1 × 10^−7M” value is listed as 32. In addition, in data set [1], the “Pressor Response to A II (p.o.) 3 mg/kg” value is “+++ (+++ ≧ 70%)”.

With `COC(=O)c1cccc2nc(OC)n(Cc3ccc(-c4ccccc4-c4nnn[nH]4)cc3)c12` [Example 45], at A II receptor, the inhibition at 1 µM came to 67% and the inhibition at 0.1 µM turned out to be 17%. In addition, the inhibition in vivo at 3 mg/kg in data set [1] was not below 70%.

For the molecule `COc1nc2cccc(C(=O)O)c2n1Cc1ccc(-c2ccccc2-c2nnn[nH]2)cc1` [Example 46], on A II receptor, the inhibition at 1 µM stood at 88% and the inhibition at 0.1 µM came to 66%. The inhibition in vivo at 3 mg/kg in data set [1] was not below 70%.

On to `CCNc1nc2cccc(C(=O)O)c2n1Cc1ccc(-c2ccccc2-c2nnn[nH]2)cc1` [Example 47], for which, at A II receptor, the “Radioreceptor Assay 1 × 10^−6M” value is listed as 96 and the “Radioreceptor Assay 1 × 10^−7M” value was found to be 84. In data set [1], the “Pressor Response to A II (p.o.) 3 mg/kg” value was “+++ (+++ ≧ 70%)”.

`CCCNc1nc2cccc(C(=O)O)c2n1Cc1ccc(-c2ccccc2-c2nnn[nH]2)cc1` [Example 48]: at A II receptor, the inhibition at 1 µM amounted to 92% and the inhibition at 0.1 µM came out at 67%. Besides, the inhibition in vivo at 3 mg/kg in data set [1] fell in the range of 50 to 70%.

Regarding `CCOc1nc2cccc(C(=O)OCc3oc(=O)oc3C)c2n1Cc1ccc(-c2ccccc2-c2nnn[nH]2)cc1` [Example 49], on A II receptor, the inhibition at 1 µM was 91% and the inhibition at 0.1 µM was 66%. Also, the inhibition in vivo at 3 mg/kg in data set [1] was not below 70%.

As for `CCOc1nc2cccc(C(=O)OCOC(C)=O)c2n1Cc1ccc(-c2ccccc2-c2nnn[nH]2)cc1` [Example 50], on A II receptor, the inhibition at 1 µM was determined as 92% and the inhibition at 0.1 µM was found to be 63%. The inhibition in vivo at 3 mg/kg in data set [1] was not below 70%.

For `CCOc1nc2cccc(C(=O)OCOC(=O)CC)c2n1Cc1ccc(-c2ccccc2-c2nnn[nH]2)cc1` [Example 51], at A II receptor, the inhibition at 1 µM amounted to 84% and the inhibition at 0.1 µM was 44%. Further, the inhibition in vivo at 3 mg/kg in data set [1] was not below 70%.

`CCCC(=O)OCOC(=O)c1cccc2nc(OCC)n(Cc3ccc(-c4ccccc4-c4nnn[nH]4)cc3)c12` [Example 52]: on A II receptor, the inhibition at 1 µM was determined as 84% and the inhibition at 0.1 µM worked out at 48%. For the same molecule, in data set [1], the inhibition in vivo at 3 mg/kg is not below 70%.

As to `CCOc1nc2cccc(C(=O)OCOC(=O)C(C)C)c2n1Cc1ccc(-c2ccccc2-c2nnn[nH]2)cc1` [Example 53], at A II receptor, the inhibition at 1 µM came to 85% and the inhibition at 0.1 µM was 55%. Also, in data set [1], the inhibition in vivo at 3 mg/kg was not below 70%.

As for `CCOC(=O)OC(C)OC(=O)c1cccc2nc(OCC)n(Cc3ccc(-c4ccccc4-c4nnn[nH]4)cc3)c12` (stereo not shown) [Example 54], on A II receptor, the inhibition at 1 µM is 81% and the inhibition at 0.1 µM is 42%. Further, the inhibition in vivo at 3 mg/kg in data set [1] is not below 70%.

For `CCOc1nc2cccc(C(=O)OC(C)OC(C)=O)c2n1Cc1ccc(-c2ccccc2-c2nnn[nH]2)cc1` (stereo not shown) [Example 55], on A II receptor, the inhibition at 1 µM was 91% and the inhibition at 0.1 µM was 63%. In addition, in data set [1], the inhibition in vivo at 3 mg/kg was not below 70%.

For `CNc1nc2cccc(C(=O)O)c2n1Cc1ccc(-c2ccccc2-c2nnn[nH]2)cc1` [Example 57], at A II receptor, the inhibition at 1 µM amounted to 79% and the inhibition at 0.1 µM amounted to 41%.

As to `CCOc1nc2cccc(C(=O)OCOC(=O)C3CCCCC3)c2n1Cc1ccc(-c2ccccc2-c2nnn[nH]2)cc1` [Example 58], at A II receptor, the inhibition at 1 µM worked out at 84% and the inhibition at 0.1 µM is 55%. Moreover, in data set [1], the inhibition in vivo at 3 mg/kg is not below 70%.

Turning to `CCOc1nc2cccc(C(=O)OCOC(=O)/C=C/c3ccccc3)c2n1Cc1ccc(-c2ccccc2-c2nnn[nH]2)cc1` [Example 60], at A II receptor, the “Radioreceptor Assay 1 × 10^−6M” value came out at 81 and the “Radioreceptor Assay 1 × 10^−7M” value came to 44. In addition, the “Pressor Response to A II (p.o.) 3 mg/kg” value in data set [1] is “+++ (+++ ≧ 70%)”.

With `CCOc1nc2cccc(C(=O)OCOC(=O)C3CCCC3)c2n1Cc1ccc(-c2ccccc2-c2nnn[nH]2)cc1` [Example 61], at A II receptor, the inhibition at 1 µM was found to be 89% and the inhibition at 0.1 µM stood at 54%. For the same molecule, in data set [1], the inhibition in vivo at 3 mg/kg is not below 70%.

Take `CCNc1nc2cccc(C(=O)OCOC(=O)C(C)(C)C)c2n1Cc1ccc(-c2ccccc2-c2nnn[nH]2)cc1` [Example 62]: on A II receptor, the inhibition at 1 µM is 87% and the inhibition at 0.1 µM was 48%. The inhibition in vivo at 3 mg/kg in data set [1] was not below 70%.

Turning to `CCNc1nc2cccc(C(=O)OC(C)OC(=O)OC3CCCCC3)c2n1Cc1ccc(-c2ccccc2-c2nnn[nH]2)cc1` (stereo not shown) [Example 63], at A II receptor, the “Radioreceptor Assay 1 × 10^−6M” value is 61 and the “Radioreceptor Assay 1 × 10^−7M” value stood at 19. Besides, the “Pressor Response to A II (p.o.) 3 mg/kg” value in data set [1] was “+++ (+++ ≧ 70%)”.

Broadly, the melting point is the temperature, or range, at which the solid turns liquid. Turning to `CCOc1nc2cccc(C(=O)OCc3oc(=O)oc3C)c2n1Cc1ccc(-c2ccccc2-c2nnn[nH]2)cc1` [Working Example 49, (5-Methyl-2-oxo-1,3-dioxolen-4-yl)methyl 2-ethoxy-1-[[2′-(1 H-tetrazol-5-yl)biphenyl-4-yl]methyl]benzimidazole-7-carboxylate], the melting point is 122 to 125 °C (dec.).

Source of the values: patent publication US6844443B2, “Benzimidazole derivatives, their production and use” (Takeda Pharmaceutical Company, Ltd., priority 1990, dated 2005).
